# Data published in the Kinase Knowledgebase extract (Sharma et al. 2016).
# pIC50: −log10 of the molar value.
# Target: PIK3CG (human) (UniProt P48736)
# Assay: Assessment of PIK3CG Kinase Activity
# Chain of PIK3CG (human) (P48736 whole entry, looked up): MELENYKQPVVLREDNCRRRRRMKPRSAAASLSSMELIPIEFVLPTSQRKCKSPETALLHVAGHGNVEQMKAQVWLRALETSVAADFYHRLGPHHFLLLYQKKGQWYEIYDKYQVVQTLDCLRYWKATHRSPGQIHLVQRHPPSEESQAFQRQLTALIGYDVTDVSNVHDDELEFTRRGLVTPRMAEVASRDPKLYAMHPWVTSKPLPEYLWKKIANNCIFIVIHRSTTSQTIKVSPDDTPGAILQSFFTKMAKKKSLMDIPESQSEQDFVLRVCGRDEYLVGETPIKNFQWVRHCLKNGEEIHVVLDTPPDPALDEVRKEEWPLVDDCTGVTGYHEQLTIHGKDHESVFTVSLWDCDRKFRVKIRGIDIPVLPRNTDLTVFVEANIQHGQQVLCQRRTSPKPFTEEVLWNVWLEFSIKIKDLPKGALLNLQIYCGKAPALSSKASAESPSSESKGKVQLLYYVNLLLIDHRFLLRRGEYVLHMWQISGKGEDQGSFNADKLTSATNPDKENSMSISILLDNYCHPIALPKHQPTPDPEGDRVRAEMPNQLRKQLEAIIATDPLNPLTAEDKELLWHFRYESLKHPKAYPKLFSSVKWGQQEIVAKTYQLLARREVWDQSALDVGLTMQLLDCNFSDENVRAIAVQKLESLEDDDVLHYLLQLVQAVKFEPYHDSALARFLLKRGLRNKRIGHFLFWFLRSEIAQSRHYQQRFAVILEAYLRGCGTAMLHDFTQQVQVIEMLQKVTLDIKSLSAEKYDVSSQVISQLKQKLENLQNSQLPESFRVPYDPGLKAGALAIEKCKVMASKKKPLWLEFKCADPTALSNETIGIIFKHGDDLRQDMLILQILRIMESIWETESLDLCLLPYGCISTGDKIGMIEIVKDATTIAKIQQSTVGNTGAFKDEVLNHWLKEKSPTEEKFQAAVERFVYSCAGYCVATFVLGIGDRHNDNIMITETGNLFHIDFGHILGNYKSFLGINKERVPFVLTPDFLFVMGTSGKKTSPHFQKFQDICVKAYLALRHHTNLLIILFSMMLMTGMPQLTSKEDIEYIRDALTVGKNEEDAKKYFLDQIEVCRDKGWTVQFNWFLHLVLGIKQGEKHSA
row,pIC50,SMILES
1,> 6.10,O=C(NCCc1nc(C2CC2)no1)Nc1nc2c(s1)-c1nc(-c3ccccc3Cl)ncc1CC2
2,> 6.10,O=C(Nc1nc2c(s1)-c1nc(-c3ccccc3Cl)ncc1CC2)N1CC[C@H](NC(=O)C(F)(F)F)C1
3,> 6.10,Cc1nc2ccccc2n1CC(C)(C)NC(=O)Nc1nc2c(s1)-c1nc(-c3ccccc3Cl)ncc1CC2
4,> 6.10,CN(C)CC(=O)N[C@H]1CCN(C(=O)Nc2nc3c(s2)-c2nc(-c4ccccc4Cl)ncc2CC3)C1
5,> 6.10,O=C(NCC1CCCCC1)Nc1nc2c(s1)-c1nc(-c3ccccc3Cl)ncc1CC2
6,> 6.10,CC(C)CNC(=O)c1cccc(CNC(=O)Nc2nc3c(s2)-c2nc(-c4ccccc4Cl)ncc2CC3)c1
7,> 6.10,O=C1CCC(NC(=O)Nc2nc3c(s2)-c2nc(-c4ccccc4Cl)ncc2CC3)C(c2ccccc2)N1 (configuration not stated)
8,> 6.10,O=C(NCc1ccn[nH]1)Nc1nc2c(s1)-c1nc(-c3ccccc3Cl)ncc1CC2
9,> 6.10,O=C(Nc1nc2c(s1)-c1nc(-c3cccc(F)c3Cl)ncc1CC2)NC1CC1
10,> 6.10,CC(C)C(=O)N[C@@H]1CCN(C(=O)Nc2nc3c(s2)-c2nc(-c4ccccc4Cl)ncc2CC3)C1
11,> 6.10,NC(=O)N1Cc2ccc(CNC(=O)Nc3nc4c(s3)-c3nc(-c5ccccc5Cl)ncc3CC4)cc2C1
12,> 6.10,CC(C)(C)OC(=O)CCNC(=O)Nc1nc2c(s1)-c1nc(-c3ccccc3Br)ncc1CC2
13,> 6.10,CN(C)C(=O)Nc1cccc(CNC(=O)Nc2nc3c(s2)-c2nc(-c4ccccc4Cl)ncc2CC3)c1
14,> 6.10,O=C(N[C@H]1CCN(C(=O)Nc2nc3c(s2)-c2nc(-c4ccccc4Cl)ncc2CC3)C1)C(F)F
15,> 6.10,CC(=O)N[C@@H]1CCN(C(=O)Nc2nc3c(s2)-c2nc(-c4ccccc4Cl)ncc2CC3)C1
16,> 6.10,CCN1CCC2(CCN(C(=O)Nc3nc4c(s3)-c3nc(-c5ccccc5Cl)ncc3CC4)C2)C1 (configuration not stated)
17,> 6.10,COc1cccc([C@@H](C)NC(=O)Nc2nc3c(s2)-c2nc(-c4ccccc4Cl)ncc2CC3)c1
18,> 6.10,CCCn1cnc(CCNC(=O)Nc2nc3c(s2)-c2nc(-c4ccccc4Br)ncc2CC3)c1
19,> 6.10,CC(C)(C)OC(=O)CCNC(=O)Nc1nc2c(s1)-c1nc(-c3ccccc3Cl)ncc1CC2
20,> 6.10,O=C(O)CC1(CNC(=O)Nc2nc3c(s2)-c2nc(-c4ccccc4Cl)ncc2CC3)CCCCC1
21,> 6.10,COCC(=O)N[C@H]1CCN(C(=O)Nc2nc3c(s2)-c2nc(-c4ccccc4Cl)ncc2CC3)C1
22,> 6.10,Cn1cccc1CCNC(=O)Nc1nc2c(s1)-c1nc(-c3ccccc3Cl)ncc1CC2
23,> 6.10,CC(C)OCCNC(=O)Nc1nc2c(s1)-c1nc(-c3ccccc3Cl)ncc1CC2

row,pIC50,SMILES
1,> 6.10,O=C(NCc1cccc(NC(=O)C2CCCC2)c1)Nc1nc2c(s1)-c1nc(-c3ccccc3Cl)ncc1CC2
2,> 6.10,O=C(NCc1cc(C2CC2)n[nH]1)Nc1nc2c(s1)-c1nc(-c3ccccc3Br)ncc1CC2
3,> 6.10,NC(=O)Nc1nc2c(s1)-c1nc(-c3cccc(F)c3Cl)ncc1CC2
4,> 6.10,CC(NC(=O)Nc1nc2c(s1)-c1nc(-c3ccccc3Cl)ncc1CC2)c1cccc(NC(=O)OC(C)(C)C)c1 (configuration not stated)
5,> 6.10,CS(=O)(=O)c1cccc(CNC(=O)Nc2nc3c(s2)-c2nc(-c4ccccc4Cl)ncc2CC3)c1
6,> 6.10,CC(C)(C)NC(=O)CCNC(=O)Nc1nc2c(s1)-c1nc(-c3ccccc3Cl)ncc1CC2
7,> 6.10,CC(C)(C)OC(=O)N1CCCC(CNC(=O)Nc2nc3c(s2)-c2nc(-c4ccccc4Cl)ncc2CC3)C1 (configuration not stated)
8,> 6.10,CC(C)COC(=O)N[C@@H]1CCN(C(=O)Nc2nc3c(s2)-c2nc(-c4ccccc4Cl)ncc2CC3)C1
9,> 6.10,CC(C)(C)CNC(=O)Nc1nc2c(s1)-c1nc(-c3ccccc3Cl)ncc1CC2
10,> 6.10,CNC(=O)Nc1nc2c(s1)-c1nc(-c3ccccc3Br)ncc1CC2
11,> 6.10,CCc1csc(CCNC(=O)Nc2nc3c(s2)-c2nc(-c4ccccc4Br)ncc2CC3)n1
12,> 6.10,O=C(Nc1nc2c(s1)-c1nc(-c3ccccc3Cl)ncc1CC2)N1CCCC(c2ccccc2O)C1 (configuration not stated)
13,> 6.10,CC(=O)Nc1cccc(CNC(=O)Nc2nc3c(s2)-c2nc(-c4ccccc4Cl)ncc2CC3)c1
14,> 6.10,CC(C)CNC(=O)CCNC(=O)Nc1nc2c(s1)-c1nc(-c3ccccc3Cl)ncc1CC2
15,> 6.10,O=C(Nc1nc2c(s1)-c1nc(-c3ccccc3Cl)ncc1CC2)N1CCC(N2Cc3ccccc3NC2=O)C1 (configuration not stated)
16,> 6.10,CN(C)CCCNC(=O)Nc1nc2c(s1)-c1nc(-c3ccccc3Cl)ncc1CC2
17,> 6.10,CS(=O)(=O)Nc1cccc(CNC(=O)Nc2nc3c(s2)-c2nc(-c4ccccc4Cl)ncc2CC3)c1
18,> 6.10,O=C(NC[C@H]1CCCN1)Nc1nc2c(s1)-c1nc(-c3ccccc3Cl)ncc1CC2
19,> 6.10,N#Cc1ccc(CNC(=O)Nc2nc3c(s2)-c2nc(-c4ccccc4Cl)ncc2CC3)s1
20,> 6.10,CNC(=O)Nc1nc2c(s1)-c1nc(-c3ccccc3C(F)(F)F)ncc1CC2
21,> 6.10,CCn1cc(CNC(=O)Nc2nc3c(s2)-c2nc(-c4ccccc4Cl)ncc2CC3)cn1
22,> 6.10,COc1cccc(CCNC(=O)Nc2nc3c(s2)-c2nc(-c4ccccc4Cl)ncc2CC3)c1
23,> 6.10,CCc1noc(CCNC(=O)Nc2nc3c(s2)-c2nc(-c4ccccc4Br)ncc2CC3)n1

row,pIC50,SMILES
1,> 6.10,O=C(Nc1nc2c(s1)-c1nc(-c3ccccc3Cl)ncc1CC2)N1CCCC(c2nc3ccccc3[nH]2)C1 (configuration not stated)
2,> 6.10,CNC(=O)Nc1nc2c(s1)-c1nc(-c3ccccc3F)ncc1CC2
3,> 6.10,CCc1cnc(CCNC(=O)Nc2nc3c(s2)-c2nc(-c4ccccc4Br)ncc2CC3)o1
4,> 6.10,CN(C(=O)OC(C)(C)C)C1CCN(C(=O)Nc2nc3c(s2)-c2nc(-c4ccccc4Cl)ncc2CC3)C1 (configuration not stated)
5,> 6.10,COCCNC(=O)CCNC(=O)Nc1nc2c(s1)-c1nc(-c3ccccc3Cl)ncc1CC2
6,> 6.10,CNC(=O)Nc1nc2c(s1)-c1nc(C(C)(C)C)ncc1CC2
7,> 6.10,CN(C)C(=O)N[C@@H]1CCN(C(=O)Nc2nc3c(s2)-c2nc(-c4ccccc4Cl)ncc2CC3)C1
8,> 6.10,O=C(NCc1nnn[nH]1)Nc1nc2c(s1)-c1nc(-c3ccccc3Cl)ncc1CC2
9,> 6.10,O=C(NCCc1cn[nH]c1)Nc1nc2c(s1)-c1nc(-c3ccccc3Cl)ncc1CC2
10,> 6.10,COc1ccc(CCNC(=O)Nc2nc3c(s2)-c2nc(-c4ccccc4Cl)ncc2CC3)cc1OC
11,> 6.10,Cn1ccc(CNC(=O)Nc2nc3c(s2)-c2nc(-c4ccccc4Cl)ncc2CC3)n1
12,> 6.10,O=C(NCc1ccc(CN2CCNC2=O)cc1)Nc1nc2c(s1)-c1nc(-c3ccccc3Cl)ncc1CC2
13,> 6.10,O=C(NCCN1CCNC1=O)Nc1nc2c(s1)-c1nc(-c3ccccc3Cl)ncc1CC2
14,> 6.10,CCn1cc(CNC(=O)Nc2nc3c(s2)-c2nc(-c4cccc(F)c4Cl)ncc2CC3)cn1
15,> 6.10,O=C(NCc1cccc(N2CCOC2=O)c1)Nc1nc2c(s1)-c1nc(-c3ccccc3Cl)ncc1CC2
16,> 6.10,NC(=O)Nc1nc2c(s1)-c1nc(-c3ccccc3Br)ncc1CC2
17,> 6.10,CC(=O)NCC1CCCN(C(=O)Nc2nc3c(s2)-c2nc(-c4ccccc4Cl)ncc2CC3)C1 (configuration not stated)
18,> 6.10,CCCn1cnc(CCNC(=O)Nc2nc3c(s2)-c2nc(-c4ccccc4Cl)ncc2CC3)c1
19,> 6.10,CN(C)C(=O)CNC(=O)Nc1nc2c(s1)-c1nc(-c3ccccc3Cl)ncc1CC2
20,> 6.10,O=C(CCNC(=O)Nc1nc2c(s1)-c1nc(-c3ccccc3Cl)ncc1CC2)NC1CCCC1
21,> 6.10,O=C(Nc1nc2c(s1)-c1nc(-c3ccccc3Cl)ncc1CC2)NC1CC1
22,> 6.10,O=C(Nc1ccc(N2CCNCC2)cc1)Nc1nc2c(s1)-c1nc(-c3ccccc3Cl)ncc1CC2
23,> 6.10,CCc1csc(CCNC(=O)Nc2nc3c(s2)-c2nc(-c4ccccc4C(F)(F)F)ncc2CC3)n1

row,pIC50,SMILES
1,> 6.10,CC(C)C(=O)Nc1cccc(CNC(=O)Nc2nc3c(s2)-c2nc(-c4ccccc4Cl)ncc2CC3)c1
2,> 6.10,O=C(NCCn1ccnc1)Nc1nc2c(s1)-c1nc(-c3ccccc3Cl)ncc1CC2
3,> 6.10,CC(C)COC(=O)N[C@H]1CCN(C(=O)Nc2nc3c(s2)-c2nc(-c4ccccc4Cl)ncc2CC3)C1
4,> 6.10,CC(C)(C)c1ncc2c(n1)-c1sc(NC(=O)NCc3cccc(N4CCNC4=O)c3)nc1CC2
5,> 6.10,Cn1nc(CNC(=O)Nc2nc3c(s2)-c2nc(-c4ccccc4Cl)ncc2CC3)cc1O
6,> 6.10,CC(C)CCNC(=O)Nc1nc2c(s1)-c1nc(-c3ccccc3Cl)ncc1CC2
7,> 6.10,O=C(Nc1nc2c(s1)-c1nc(-c3ccccc3Cl)ncc1CC2)N1CC[C@H](NS(=O)(=O)N2CCCC2)C1
8,> 6.10,CC(C)c1nnc(CCNC(=O)Nc2nc3c(s2)-c2nc(-c4ccccc4Cl)ncc2CC3)o1
9,> 6.10,CC(C)(C)OC(=O)CCNC(=O)Nc1nc2c(s1)-c1nc(C(C)(C)C)ncc1CC2
10,> 6.10,CC(C)CCNC(=O)CCNC(=O)Nc1nc2c(s1)-c1nc(-c3ccccc3Cl)ncc1CC2
11,> 6.10,O=C(NCCN1CCCC1)Nc1nc2c(s1)-c1nc(-c3ccccc3Cl)ncc1CC2
12,> 6.10,O=C(NCc1ccccc1N1CCCCC1)Nc1nc2c(s1)-c1nc(-c3ccccc3Cl)ncc1CC2
13,> 6.10,O=C(Nc1nc2c(s1)-c1nc(-c3ccccc3Cl)ncc1CC2)Nc1ccccc1CN1CCNC1=O
14,> 6.10,CN(C)S(=O)(=O)Nc1cccc(CNC(=O)Nc2nc3c(s2)-c2nc(-c4ccccc4Cl)ncc2CC3)c1
15,> 6.10,O=C1CC[C@H](NC(=O)Nc2nc3c(s2)-c2nc(-c4ccccc4Cl)ncc2CC3)CN1
16,> 6.10,O=C(Nc1nc2c(s1)-c1nc(-c3ccccc3Cl)ncc1CC2)N1CCCC1
17,> 6.10,N#Cc1cccc(CNC(=O)Nc2nc3c(s2)-c2nc(-c4ccccc4Cl)ncc2CC3)c1
18,> 6.10,CN(C)c1cccc(CNC(=O)Nc2nc3c(s2)-c2nc(-c4ccccc4Cl)ncc2CC3)c1
19,> 6.10,Cn1cc(CNC(=O)Nc2nc3c(s2)-c2nc(-c4ccccc4C(F)(F)F)ncc2CC3)cn1
20,> 6.10,Cn1cc(CNC(=O)Nc2nc3c(s2)-c2nc(-c4ccccc4Cl)ncc2CC3)cn1
21,> 6.10,O=C(NCc1cc(C2CC2)n[nH]1)Nc1nc2c(s1)-c1nc(-c3cccc(F)c3Cl)ncc1CC2
22,> 6.10,CC(C)CC(=O)N[C@@H]1CCN(C(=O)Nc2nc3c(s2)-c2nc(-c4ccccc4Cl)ncc2CC3)C1
23,> 6.10,CC(C)(C)OC(=O)NCC1CCCN1C(=O)Nc1nc2c(s1)-c1nc(-c3ccccc3Cl)ncc1CC2 (configuration not stated)
